Source: article PMC10184535, “An HR2-Mimicking Sulfonyl-γ-AApeptide Is a Potent Pan-coronavirus Fusion Inhibitor with Strong Blood–Brain Barrier Permeability, Long Half-Life, and Promising Oral Bioavailability” (ACS Central Science, 2023)

System: authentic SARS-CoV-2 Delta variant
Details: 48 h

Compound: CC[C@H](C)[C@H](NC(=O)[C@H](C)NC(=O)[C@H](CCC(=O)O)NC(=O)[C@H](CCC(=O)O)NC(=O)[C@H](CC(C)C)NC(=O)[C@H](CCCCN)NC(=O)[C@H](CCCCN)NC(=O)[C@H](CCSC)NC(=O)[C@H](CCC(=O)O)NC(=O)[C@H](Cc1ccc(O)cc1)NC(=O)[C@H](CCC(=O)O)NC(=O)[C@H](CC(C)C)NC(=O)[C@H](CC(=O)O)NC(=O)[C@H](CC(C)C)NC(=O)[C@H](Cc1ccccc1)NC(=O)[C@@H](NC(=O)[C@@H](NC(=O)[C@H](CC(N)=O)NC(=O)[C@@H](NC(=O)[C@H](CCC(N)=O)NC(=O)[C@H](CC(=O)O)NC(=O)[C@H](CC(C)C)NC(=O)[C@@H](N)CO)[C@@H](C)CC)C(C)C)[C@@H](C)O)C(=O)N[C@@H](CCCCN)C(=O)N[C@@H](CCCCN)C(=O)N[C@@H](CC(C)C)C(=O)N[C@@H](CCC(=O)O)C(=O)N[C@@H](CCC(=O)O)C(=O)N[C@@H](CO)C(=O)N[C@@H](Cc1ccc(O)cc1)C(=O)N[C@H](C(=O)N[C@@H](CC(=O)O)C(=O)N[C@@H](CC(C)C)C(=O)N[C@@H](CCCCN)C(=O)N[C@@H](CCC(=O)O)C(=O)N[C@@H](CC(C)C)C(=O)O)[C@@H](C)CC [EK1]
- IC50: 2.86 µM
